Holding throughout (assay type): cell-based
Experiment [1] has as its target T1, human GIP receptor (hGIP-R) (Homo sapiens, UniProt P48546).
T1 construct: expressed in transfected cells
T1 sequence (P48546 22-466): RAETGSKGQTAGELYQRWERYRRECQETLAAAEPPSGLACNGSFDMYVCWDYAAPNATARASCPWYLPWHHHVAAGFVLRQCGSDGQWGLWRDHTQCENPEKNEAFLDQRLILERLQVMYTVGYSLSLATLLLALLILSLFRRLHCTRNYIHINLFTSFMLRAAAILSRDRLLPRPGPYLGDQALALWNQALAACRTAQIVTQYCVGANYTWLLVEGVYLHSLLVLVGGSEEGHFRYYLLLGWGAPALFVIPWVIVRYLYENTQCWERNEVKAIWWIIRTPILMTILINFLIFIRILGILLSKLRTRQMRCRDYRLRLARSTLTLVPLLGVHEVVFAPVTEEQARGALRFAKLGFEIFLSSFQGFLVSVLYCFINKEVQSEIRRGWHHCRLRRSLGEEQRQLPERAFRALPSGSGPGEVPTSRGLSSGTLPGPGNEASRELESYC
Briefly: cAMP response of HEK-293 cells expressing human GIP receptor (HTRF). As to conditions: Table 6; read-out: EC50 hGIP-R. As for the experimental part: (§1) cAMP content of cells was determined using a kit from Cisbio Corp. (cat. no. 62AM4PEC) based on HTRF (Homogenous Time Resolved Fluorescence). For preparation, cells were split into T175 culture flasks and grown overnight to near confluency in medium (DMEM/10% FBS). Medium was then removed and cells washed with PBS lacking calcium and magnesium, followed by proteinase treatment with accutase (Sigma-Aldrich cat. no. A6964). Detached cells were washed and resuspended in assay buffer (1×HBSS; 20 mM HEPES, 0.1% BSA, 2 mM IBMX) and cellular density determined. They were then diluted to 400000 cells/ml and 25 μl-aliquots dispensed into the wells of 96-well plates. For measurement, 25 μl of test compound in assay buffer was added to the wells, followed by incubation for 30 minutes at room temperature.
In general terms: TR-FRET usually uses a lanthanide donor and a delayed reading to cut background.

Experiment [2] has as its target T2, human GLP-1 receptor (hGLP-1 R) (Homo sapiens, UniProt P43220).
T2 construct: expressed in transfected cells
Put plainly: cAMP response of HEK-293 cells expressing human GLP-1 receptor (HTRF). As to conditions: Table 6. Here is the method:
as §1

The target in experiment [3] is T3, human glucagon receptor (hGlucagon R) (Homo sapiens, UniProt P47871).
T3 construct: expressed in transfected cells
Briefly: cAMP response of HEK-293 cells expressing human glucagon receptor (HTRF). To be noted: Table 6. As for the experimental part:
as §1

T2 sequence (P43220 24-463): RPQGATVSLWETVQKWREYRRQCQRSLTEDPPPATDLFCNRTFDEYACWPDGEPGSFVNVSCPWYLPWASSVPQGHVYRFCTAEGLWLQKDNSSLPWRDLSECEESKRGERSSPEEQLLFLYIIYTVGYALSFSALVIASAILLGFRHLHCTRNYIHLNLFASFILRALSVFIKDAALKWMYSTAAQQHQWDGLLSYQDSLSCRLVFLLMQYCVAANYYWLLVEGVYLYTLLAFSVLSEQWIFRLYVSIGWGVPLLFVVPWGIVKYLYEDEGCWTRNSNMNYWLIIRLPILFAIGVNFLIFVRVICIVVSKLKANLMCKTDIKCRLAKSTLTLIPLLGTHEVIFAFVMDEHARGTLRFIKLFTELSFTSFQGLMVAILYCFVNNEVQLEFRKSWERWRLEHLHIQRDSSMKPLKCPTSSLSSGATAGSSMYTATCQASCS
T3 sequence (P47871 26-477): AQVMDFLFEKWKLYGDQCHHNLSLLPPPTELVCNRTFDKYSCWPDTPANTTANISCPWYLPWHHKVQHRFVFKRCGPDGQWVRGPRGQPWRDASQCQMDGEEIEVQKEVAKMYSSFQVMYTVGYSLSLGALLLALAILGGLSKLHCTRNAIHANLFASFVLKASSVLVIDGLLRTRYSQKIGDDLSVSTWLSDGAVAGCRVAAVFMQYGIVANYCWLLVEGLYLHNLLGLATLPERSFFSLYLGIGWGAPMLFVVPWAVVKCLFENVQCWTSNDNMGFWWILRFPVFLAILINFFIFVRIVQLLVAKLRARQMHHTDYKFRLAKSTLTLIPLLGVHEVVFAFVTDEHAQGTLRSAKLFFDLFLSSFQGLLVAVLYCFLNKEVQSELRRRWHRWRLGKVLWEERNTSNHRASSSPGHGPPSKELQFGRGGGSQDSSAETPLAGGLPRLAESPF

The EC50 is the concentration at which the effect is half-maximal. For the compound `CCCCCCCCCCCCCCCCCC(=O)N[C@@H](CCC(=O)NCCCC[C@H](NC(=O)[C@H](CCC(N)=O)NC(=O)[C@H](CCCCN)NC(=O)[C@H](CO)NC(=O)[C@H](CC(C)C)NC(=O)[C@H](CC(=O)O)NC(=O)[C@H](CO)NC(=O)[C@@H](NC(=O)[C@H](Cc1ccccc1)NC(=O)[C@@H](NC(=O)CNC(=O)[C@H](CCC(N)=O)NC(=O)C(C)(C)NC(=O)[C@@H](N)Cc1c[nH]cn1)[C@@H](C)O)[C@@H](C)O)C(=O)N[C@@H](CC(=O)O)C(=O)N[C@@H](CCC(=O)O)C(=O)N[C@@H](CCC(N)=O)C(=O)N[C@@H](CCCNC(=N)N)C(=O)N[C@@H](C)C(=O)N[C@@H](CCCCN)C(=O)N[C@@H](CC(C)C)C(=O)N[C@@H](Cc1ccccc1)C(=O)N[C@H](C(=O)N[C@@H](CCC(=O)O)C(=O)N[C@@H](Cc1c[nH]c2ccccc12)C(=O)N[C@@H](CC(C)C)C(=O)NC(C)(C)C(=O)N[C@@H](C)C(=O)NCC(=O)NCC(=O)N1CCC[C@H]1C(=O)N[C@@H](CO)C(=O)N[C@@H](CO)C(=O)NCC(=O)N[C@@H](C)C(=O)N1CCC[C@H]1C(=O)N1CCC[C@H]1C(=O)N1CCC[C@H]1C(=O)N[C@@H](CO)C(N)=O)[C@@H](C)CC)C(=O)O` [SEQ ID NO: 9, H-Aib-Q-G-T-F-T-S-D-L-S-K-Q-K(γE-x70)-D-E-Q-R-A-K-L-F-I-E-W-L-Aib-A-G-G-P-S-S-G-A-P-P-P-S-NH2], the results for the EC50 in experiment [1], in experiment [2] and in experiment [3] were 1.16 nM, 0.0064 nM and 0.0154 nM, respectively.

On to `CCCCCCCCCCCCCCCC(=O)N[C@@H](CCC(=O)NCCCC[C@H](NC(=O)[C@H](CCC(N)=O)NC(=O)[C@H](CCCCN)NC(=O)[C@H](CO)NC(=O)[C@H](CC(C)C)NC(=O)[C@H](CC(=O)O)NC(=O)[C@H](CO)NC(=O)[C@@H](NC(=O)[C@H](Cc1ccccc1)NC(=O)[C@@H](NC(=O)CNC(=O)[C@H](CCC(N)=O)NC(=O)C(C)(C)NC(=O)[C@@H](N)Cc1c[nH]cn1)[C@@H](C)O)[C@@H](C)O)C(=O)N[C@@H](CC(=O)O)C(=O)N[C@@H](CCC(=O)O)C(=O)N[C@@H](CCC(N)=O)C(=O)N[C@@H](CCCNC(=N)N)C(=O)N[C@@H](C)C(=O)N[C@@H](CCCCN)C(=O)N[C@@H](CC(C)C)C(=O)N[C@@H](Cc1ccccc1)C(=O)N[C@H](C(=O)N[C@@H](CCC(=O)O)C(=O)N[C@@H](Cc1c[nH]c2ccccc12)C(=O)N[C@@H](CC(C)C)C(=O)NC(C)(C)C(=O)N[C@@H](C)C(=O)NCC(=O)NCC(=O)N1CCC[C@H]1C(=O)N[C@@H](CO)C(=O)N[C@@H](CO)C(=O)NCC(=O)N[C@@H](C)C(=O)N1CCC[C@H]1C(=O)N1CCC[C@H]1C(=O)N1CCC[C@H]1C(=O)N[C@@H](CO)C(N)=O)[C@@H](C)CC)C(=O)O` [SEQ ID NO: 10, H-Aib-Q-G-T-F-T-S-D-L-S-K-Q-K(γE-x53)-D-E-Q-R-A-K-L-F-I-E-W-L-Aib-A-G-G-P-S-S-G-A-P-P-P-S-NH2], for which the values for the EC50 in experiment [1], in experiment [2] and in experiment [3] were 0.89 nM, 0.0035 nM and 0.0524 nM, respectively.

The record behind these values is patent US9775904B2 (priority 2014, dated 2017).
